Several values for one entry are separate records, joined by “and”; a condition that tells them apart may be missing. Equal values may be shown once.
Assays:
overactive bladder = conditions: OAB patients; cited from earlier work
NK1 receptor = assay: NK1 receptor-mediated relaxation of rabbit pulmonary artery induced by ASMSP
Procedure: (§1) Male New Zealand white rabbits were administered a lethal injection of Nembutal, (60 mg/kg) into a cannulated ear vein. Heparin, 0.0025 mL/kg of a 1000 U/ml solution, was injected into the ear vein prior to Nembutal in order to decrease blood coagulation. The left and right branches of the pulmonary artery were obtained from each animal. The segments, with or without endothelium, were suspended as rings in water-jacketed tissue baths maintained at 37° C. containing physiological salt solution of the following composition (mM): NaCl (119.0); KCl (4.6); CaCl2 (1.8); MgCl2 (0.5); NaH2PO4 (1.0); NaHCO3 (25.0); glucose (11.0); and gassed continuously with 95% O2-5% CO2. Initial tension placed on each tissue was 2 gm, which was maintained throughout a 0.5 hour equilibration period. Changes in tension were measured on a Grass polygraph via Grass FT-03 force transducers.
(§2) To study NK2-mediated contraction, the vascular endothelium was removed and beta-Ala^8-NKA (“BANK”) was used as agonist. […] The response to each concentration of ASMSP was expressed as a percentage of the total relaxation induced by papaverine. […] Apparent KB values for the compound were calculated using the standard equation: KB=[antagonist]/(dose ratio−1), where dose ratio was equal to antilog [(−log molar EC50 without antagonist)−(−log molar EC50 with antagonist)]. The resulting KB values are expressed as −log molar KB.

BANK-induced dyspnea = BANK-induced dyspnea in conscious guinea pigs; assay type: in vivo, guinea pig; conditions: for ED50: Cavia porcellus
Procedure: Dyspnea (labored abdominal breathing) was induced in conscious guinea pigs by aerosol administration of BANK, as previously described (Kusner, et al. Euro. J. Pharmacol. 210:299-306,1992). All animals were pretreated with atropine, 10 mg/kg ip 45 minutes; indomethacin, 10 mg/kg ip 30 minutes; propranolol, 5 mg/kg ip 30 minutes; and thiorphan, 1 mg/ml aerosol for 5 minutes duration, starting 15 minutes prior to challenge in order to block muscarinic receptors, cyclooxygenase, beta-adrenergic receptors, and neutral endopeptidase (EC 3.4.24.11), respectively. Animals were pretreated with Compound or vehicle at appropriate times before challenge with aerosolized BANK for 780 seconds. BANK was administered to six animals simultaneously by being aerosolized with a DeVilbiss ultrasonic nebulizer into an air stream flowing into a Plexiglas chamber at a rate of 2 liter/min. The time required for dyspnea to occur was recorded for each animal. […] Vehicle pretreated control animals were included in each experiment. Results are reported in % protection values where: [formula]

human NK2 receptor = target: T1, human NK2 receptor (Homo sapiens, UniProt P21452); assay: Neurokinin receptor binding assay, 3H-NKA binding to MEL cell membranes; conditions: tritiated NKA; read-out: Ki, concentration at which 50% inhibition of binding of NKA was achieved
T1 construct: expressed in transfected cells; host or cells: Mouse Erythroleukemia (MEL) cells, membrane preparation (MELM)
T1 sequence (P21452 1-398): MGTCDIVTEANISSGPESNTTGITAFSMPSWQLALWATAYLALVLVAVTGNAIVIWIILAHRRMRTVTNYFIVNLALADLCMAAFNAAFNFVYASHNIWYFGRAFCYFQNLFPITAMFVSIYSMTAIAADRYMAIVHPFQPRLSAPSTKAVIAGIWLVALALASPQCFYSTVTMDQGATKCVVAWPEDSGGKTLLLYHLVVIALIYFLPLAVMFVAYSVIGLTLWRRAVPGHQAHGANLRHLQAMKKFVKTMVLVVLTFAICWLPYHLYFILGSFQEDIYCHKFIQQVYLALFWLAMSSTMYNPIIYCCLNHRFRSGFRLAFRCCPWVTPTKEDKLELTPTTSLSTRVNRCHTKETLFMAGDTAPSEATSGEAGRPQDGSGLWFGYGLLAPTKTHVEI

[1] = target: T2, NK2 receptor of rabbit pulmonary artery (Oryctolagus cuniculus, UniProt P79218); assay: Inhibition of NK2 receptor-mediated contraction of rabbit pulmonary artery (agonist BANK); conditions: endothelium removed, read-out: -log molar KB (converted)
T2 construct: The left and right branches of the pulmonary artery were obtained from each animal; from tissue; host or cells: rabbit pulmonary artery rings, endothelium removed
T2 sequence (P79218 1-384): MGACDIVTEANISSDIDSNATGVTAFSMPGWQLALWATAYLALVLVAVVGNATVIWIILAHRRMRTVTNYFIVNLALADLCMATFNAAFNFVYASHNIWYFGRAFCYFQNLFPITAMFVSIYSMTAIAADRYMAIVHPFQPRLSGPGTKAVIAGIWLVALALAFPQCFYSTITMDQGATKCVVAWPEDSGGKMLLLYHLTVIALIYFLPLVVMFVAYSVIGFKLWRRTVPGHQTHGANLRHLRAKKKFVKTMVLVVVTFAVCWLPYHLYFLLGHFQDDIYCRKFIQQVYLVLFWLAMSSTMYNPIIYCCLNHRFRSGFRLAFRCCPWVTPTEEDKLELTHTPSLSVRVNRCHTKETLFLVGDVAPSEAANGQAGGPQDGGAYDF
Procedure: Inhibition of NK2 Receptor-Mediated Contraction of Rabbit Pulmonary Artery:
as §1, with “Initial tension placed on each tissue was 2 gm, which was maintained throughout a 0.5 hour equilibration period.” left out
as §2

[2] = Side-effects in laboratory test animals; assay type: in vivo; conditions: several multiples of the minimum effective dose
[3] = test system: BANK-induced bronchoconstriction; assay: Pulmonary mechanics in anesthetized guinea pigs, BANK-induced bronchoconstriction; assay type: in vivo, guinea pig
[4] = test system: BANK-induced bladder contraction; assay: In vivo bladder contraction inhibition in rats (BANK-induced); parameters: species or system rat
[5] = target: T3, NK2 receptor, human bronchus (Homo sapiens, UniProt P21452); assay: NK2 receptor antagonism in human bronchus; conditions: read-out: -log molar KB (converted)
T3 construct: from tissue; host or cells: human bronchus
T3 sequence (P21452 1-398): T1 sequence (P21452 1-398)

NK1 receptors = target: T4, NK1 receptors (Homo sapiens, UniProt P25103); assay: Inhibition of binding of a tritiated derivative of SP in a tissue preparation selective for NK1 receptors; conditions: read-out: concentration at which 50% inhibition of binding of SP was achieved
T4 construct: from tissue; host or cells: unnamed tissue preparation selective for NK1 receptors
Text: The specificity of inhibition by the Compound was shown by inhibiting the binding of tritiated NKA at the NK2 receptor compared to inhibition of binding of a tritiated derivative of SP in a tissue preparation selective for NK1 receptors.

T4 sequence (P25103 whole entry): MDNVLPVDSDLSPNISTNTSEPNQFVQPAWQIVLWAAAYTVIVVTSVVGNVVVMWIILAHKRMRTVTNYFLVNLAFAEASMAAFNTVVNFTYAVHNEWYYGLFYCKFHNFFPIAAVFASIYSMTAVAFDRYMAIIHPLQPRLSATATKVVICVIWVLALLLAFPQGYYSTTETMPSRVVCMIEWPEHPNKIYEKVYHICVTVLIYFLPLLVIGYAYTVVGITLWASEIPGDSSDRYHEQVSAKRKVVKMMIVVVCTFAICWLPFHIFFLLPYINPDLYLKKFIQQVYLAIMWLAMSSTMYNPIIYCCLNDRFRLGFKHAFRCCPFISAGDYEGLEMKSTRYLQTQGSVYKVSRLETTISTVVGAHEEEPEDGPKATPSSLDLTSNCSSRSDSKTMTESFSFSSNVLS

Row | SMILES | adverse effects (primarily dry mouth), share of the patient population (overactive bladder) | antagonism of relaxation induced by ASMSP (NK1 receptor; endothelium intact, phenylephrine-contracted) | selectivity, KB against NK1 receptor-mediated response versus NK2 receptor-mediated response (NK1 receptor; rabbit pulmonary artery) | protection half-life against BANK-induced dyspnea (BANK-induced dyspnea; 2 mg/kg dose, duration of action studies) | ED50 (BANK-induced dyspnea; intravenously 30 min prior to challenge) | ED50 (BANK-induced dyspnea; oral administration 120 min before challenge) | Maximum efficacy (% protection) (BANK-induced dyspnea; intravenous, 0.3 μmol/kg) | Maximum efficacy (% protection) (BANK-induced dyspnea; oral dose of 3.0 μmol/kg) | Ki (human NK2 receptor) | Kb [1] | untoward side-effects [2] | rightward shift of the response curves for BANK ([3]; intravenously at 30 min before BANK) | rightward shift in the BANK-induced dose-response curve ([3]; oral 120 min before BANK) | maximum efficacy ([4]; […] (1.8 mg/kg) against intravenous BANK (3 nmol/kg)) | activity in bladder contraction test ([4]; intravenously and orally, 0.2 to 5 μmol/kg body weight) | Duration of action ([4]; oral 1.2 μmol/kg) | half-life of action ([4]; oral 1.2 μmol/kg) | maximum efficacy ([4]; oral, 5 μmol/kg (2.5 mg/kg)) | Kb [5] | IC50 (NK1 receptors)
1 | CCN(CC)CC#CCOC(=O)C(O)(c1ccccc1)C1CCCCC1 (stereo not drawn) [oxybutinin] | approximately 78% | – | – | – | – | – | – | – | – | – | – | – | – | – | – | – | – | – | – | –
2 | CN(C[C@@H](CCN1CCC(N2CCCNC2=O)CC1)c1ccc(Cl)c(Cl)c1)C(=O)c1ccccc1 [the Compound, (S)-N-[2-(3,4-dichlorophenyl)-4-[4-(2-oxoperhydropyrimidin-1-yl)piperidino]butyl]-N-methylbenzamide] | – | minor antagonism | 1,096 fold | 2.43 h | 0.13 µmol/kg and 0.07 mg/kg | 0.75 µmol/kg and 0.39 mg/kg | 95% | 100% | 1.25 nM | 0.891 nM | has not been found to show any indication of any untoward side-effects | ~196 fold | ~481 fold | approximately 100% | active and selective | about 6 hr | ~3.5 h | about 80% | 2.4 nM | 187 nM
3 | Cc1ccc(O)c([C@H](CCN(C(C)C)C(C)C)c2ccccc2)c1 [tolterodine] | ~39% | – | – | – | – | – | – | – | – | – | – | – | – | – | – | – | – | – | – | –

— US20030139433A1, “Method for the treatment of overactive bladder” (priority 2000, published 2003)
